The record followed here is US4293504A, “Process for preparing optically active α-cyano-3-(4-halogenophenoxy)-benzyl 2-(4-chlorophenyl)isovalerate” (Sumitomo Chemical Company, Limited, priority 1979, dated 1981).

Assay [1] concerns female adult CSMA-strain houseflies. As to the kind of experiment: Test Example 2: topical application to thorax, mortality after 24 hours. The settings on record: for Relative Efficacy (reference compound: 100): from LD50, housefly, reference = racemate with same X; for LD50 (median lethal dose): topical, 0.5 μl acetone solution to thorax, 24 hours. It counts as in vivo, housefly. As to the method: (§1) In the following test examples, the "racemate" (conventional product) of each of the compounds of the formula (I) was formulated in the same procedures as in each test example and then used as a reference compound.
The compounds of this invention, (1), (2), (3), (4) and (5) were diluted with acetone to a predetermined concentration, and 0.5 μl of each solution was topically applied to thorax of female adult CSMA-strain houseflies with a microsyringe. The flies were placed in a plastic cup having a diameter of 12 cm containing therein cotton absorbent impregnated with 3% sugar water. 24 hours later, the alive and dead was evaluated to determine the LD50 (median lethal dose) (μg/insect).

The test system of assay [2] is tobacco cutworm. As to the kind of experiment: whole plant or invertebrate. The note with it: for LC50: 48 h, read-out: LC50 (median lethal concentration); for Relative Efficacy (reference compound: 100): from LC50, tobacco cutworm, reference = racemate with same X. It counts as in vivo.
From the text: (§2) 10 parts of each of the compounds of this invention, (1), (2), (3), (4) and (5) was mixed with 15 parts of Sorpol 3005x (a registered trademark of Toho Chemical Co., Ltd.) and 75 parts of xylene, and the mixture was thoroughly stirred to provide a 10% emulsifiable concentrate.
as §1
Each of the emulsifiable concentrates prepared from the compounds of this invention, (1), (2), (3), (4) and (5) in the procedures described in Formulation Example 1 was diluted with water to a predetermined concentration, and a sticker containing 20% of an alkylphenol polyethylene glycol ether and 12% of a salt of lignin sulfonic acid was added to the solution in an amount of 1 ml per 3,000 ml of the solution. […] Ten 3rd-instar larvae of tobacco cutworm were further immersed in each solution for 10 seconds. The leaves and cutworms were air-dried and placed in each plastic cup having a diameter of 10 cm and a height of 4 cm. 48 hours later, the alive and dead was evaluated to obtain the LC50 (median lethal concentration) (ppm).

Assay [3] concerns adult green rice leafhoppers. As to the kind of experiment: Test Example 3: dust applied to rice seedlings, mortality after 24 hours. Type of assay: in vivo, green rice leafhopper. The settings on record: 0.5% dust, 2 kg/10 ares, 200 mmHg. As to the method:
0.5 part of each of the compounds of this invention, (1), (2), (3), (4) and (5) was dissolved in 20 parts of acetone. To the solution was added 99.5 parts of 300 mesh clay, and the mixture was thoroughly stirred. The acetone was distilled off to provide a 0.5% dust.
The dusts prepared from the compounds of this invention, (1), (2), (3), (4) and (5) in the procedures described in Formulation Example 2 were applied to rice seedlings planted in each 3 inch pot and 20 days old after seeding. A bell-jar duster was used to apply each dust at a pressure of 200 mmHg at a rate of 2 kg/10 ares. After the treatment, each pot was enclosed with a metal screen cage in which about 30 adult green rice leafhoppers were released.

Assay [4] has as its system carmine mites. As to the kind of experiment: Test Example 4: emulsifiable concentrate applied to mite-infested potted kidney beans. Type of assay: in vivo, carmine mite. The note with it: 10% emulsifiable concentrate diluted 500-fold, 10 ml/pot; 10 days. The protocol: as §2
10 to 15 female adult carmine mites were placed on each leaf of potted kidney beans (2-leaf stage) 9 days old after seeding. After standing in a constant temperature room at 27° C. for a week, a lot of mites in various growth stages were observed on the beans. Each of the emulsifiable concentrates prepared from the compounds of this invention (1) and (2) in the procedures described in Formulation Example 1 was diluted 500-fold with water and applied to the beans on a turntable at a rate of 10 ml/pot.

Assay [5] relates to harmful insects and/or mites. Briefly: Insecticidal and/or acaricidal activity of optical isomers (general statement). Type of assay: in vivo. The settings on record: Aα-isomer, X = F versus other halogens.

Values after ≈ are worked out from the molar mass of the structure shown.

Consider `CC(C)C(C(=O)OC(C#N)c1cccc(Oc2ccc(Cl)cc2)c1)c1ccc(Cl)cc1` (racemic) [(b), reference compound], for which, in assay [1], the “Relative Efficacy (reference compound: 100)” value (shortened to “Relative Efficacy”) worked out at 100 and the “LD50 (median lethal dose)” value is listed as 0.062 μg/insect. In addition, in assay [2], the LC50 is 15.2 µg/mL (≈ 33.5 µM) and the “Relative Efficacy” value stood at 100.

In the case of `CC(C)C(C(=O)OC(C#N)c1cccc(Oc2ccc(Br)cc2)c1)c1ccc(Cl)cc1` (racemic) [(c), reference compound], in assay [1], the “Relative Efficacy” value turned out to be 100 and the “LD50 (median lethal dose)” value came out at 0.080 μg/insect. Besides, in assay [2], the LC50 amounted to 20 µg/mL (≈ 40.1 µM) and the “Relative Efficacy” value is on record as 100.

In the case of `CC(C)C(C(=O)OC(C#N)c1cccc(Oc2ccc(F)cc2)c1)c1ccc(Cl)cc1` (racemic) [Reference Compound (a), reference compound], in assay [1], the “Relative Efficacy” value is listed as 100 and the “LD50 (median lethal dose)” value was 0.041 μg/insect. In assay [2], the LC50 is 5 µg/mL (≈ 11.4 µM) and the “Relative Efficacy” value was 100.

In the case of `CC(C)[C@H](C(=O)OC(C#N)c1cccc(Oc2ccc(F)cc2)c1)c1ccc(Cl)cc1` (stereo partly shown) [Compound (1)], in assay [1], the “Relative Efficacy” value turned out to be 216 and the “LD50 (median lethal dose)” value is on record as 0.019 μg/insect. In addition, the “alive and dead evaluation of leafhoppers” value in assay [3] is “completely killed”. The “damage to mite-released kidney beans” value in assay [4] is given as “little damaged”. In assay [2], the LC50 stood at 2.3 µg/mL (≈ 5.25 µM) and the “Relative Efficacy” value is reported as 217.

On to `CC(C)[C@H](C(=O)O[C@H](C#N)c1cccc(Oc2ccc(F)cc2)c1)c1ccc(Cl)cc1` [Compound (2)], for which the “activity compared with other halogen-substituted compounds” value in assay [5] is on record as “stronger activity than other halogen-substituted compounds”. For the same molecule, in assay [1], the “Relative Efficacy” value came to 410 and the “LD50 (median lethal dose)” value worked out at 0.010 μg/insect. The “alive and dead evaluation of leafhoppers” value in assay [3] was “completely killed”. Besides, in assay [4], the “damage to mite-released kidney beans” value is reported as “little damaged”. In assay [2], the LC50 came to 1.2 µg/mL (≈ 2.74 µM) and the “Relative Efficacy” value came out at 417.

Consider `CC(C)[C@H](C(=O)O[C@H](C#N)c1cccc(Oc2ccc(Cl)cc2)c1)c1ccc(Cl)cc1` [Compound (3)], for which, in assay [1], the “Relative Efficacy” value worked out at 388 and the “LD50 (median lethal dose)” value is recorded as 0.016 μg/insect. Also, the “alive and dead evaluation of leafhoppers” value in assay [3] is “completely killed”. In addition, in assay [2], the LC50 was found to be 3.9 µg/mL (≈ 8.58 µM) and the “Relative Efficacy” value worked out at 390.

Regarding `CC(C)[C@H](C(=O)OC(C#N)c1cccc(Oc2ccc(Br)cc2)c1)c1ccc(Cl)cc1` (stereo partly shown) [Compound (4)], in assay [1], the “Relative Efficacy” value stood at 229 and the “LD50 (median lethal dose)” value was 0.035 μg/insect. Moreover, the “alive and dead evaluation of leafhoppers” value in assay [3] is on record as “completely killed”. In addition, in assay [2], the LC50 came to 9.5 µg/mL (≈ 19 µM) and the “Relative Efficacy” value is 211.

For `CC(C)[C@H](C(=O)O[C@H](C#N)c1cccc(Oc2ccc(Br)cc2)c1)c1ccc(Cl)cc1` [Compound (5)], in assay [1], the “Relative Efficacy” value was 444 and the “LD50 (median lethal dose)” value turned out to be 0.018 μg/insect. The “alive and dead evaluation of leafhoppers” value in assay [3] is listed as “completely killed”. Further, in assay [2], the LC50 turned out to be 4.2 µg/mL (≈ 8.42 µM) and the “Relative Efficacy” value turned out to be 476.
